This note sets out measurements from patent publication US10246466B2, “Diaryl macrocycles as modulators of protein kinases” (TP THERAPEUTICS, INC., priority 2014, dated 2019).

In general, Kd refers to a measure of binding affinity in units of concentration. A word on the IC50: it is the concentration that gives 50% inhibition.

In test [1] the target is ALK (Homo sapiens (Human), UniProt Q9UM73). Description: KINOMEscan kinase binding assay (DiscoveRx). Here is the method:
(§1) For most assays, kinase-tagged T7 phage strains were prepared in an E. coli host derived from the BL21 strain. E. coli were grown to log-phase and infected with T7 phage and incubated with shaking at 32° C. until lysis. The lysates were centrifuged and filtered to remove cell debris. The remaining kinases were produced in HEK-293 cells and subsequently tagged with DNA for qPCR detection. […] The liganded beads were blocked with excess biotin and washed with blocking buffer (SeaBlock (Pierce), 1% BSA, 0.05% Tween 20, 1 mM DTT) to remove unbound ligand and to reduce nonspecific binding. […] All reactions were performed in polystyrene 96-well plates in a final volume of 0.135 mL. […] The kinase concentration in the eluates was measured by qPCR.

For test [2], the target named is JAK2 (Homo sapiens (Human), UniProt O60674). Description: KINOMEscan kinase binding assay (DiscoveRx). Here is the method:
as §1

For test [3], the target named is JAK1 (Homo sapiens (Human), UniProt P23458). Description: KINOMEscan kinase binding assay (DiscoveRx). The procedure:
(§2) Kinase binding assays were performed at DiscoveRx using the general KINOMEscan Kd Protocol (Fabian, M. A. et al., “A small molecule-kinase interaction map for clinical kinase inhibitors,” Nat. Biotechnol. 2005, 23(3):329-36). For most assays, kinase-tagged T7 phage strains were prepared in an E. coli host derived from the BL21 strain. E. coli were grown to log-phase and infected with T7 phage and incubated with shaking at 32° C. until lysis. The lysates were centrifuged and filtered to remove cell debris. The remaining kinases were produced in HEK-293 cells and subsequently tagged with DNA for qPCR detection. Streptavidin-coated magnetic beads were treated with biotinylated small molecule ligands for 30 minutes at room temperature to generate affinity resins for kinase assays. The liganded beads were blocked with excess biotin and washed with blocking buffer (SeaBlock (Pierce), 1% BSA, 0.05% Tween 20, 1 mM DTT) to remove unbound ligand and to reduce nonspecific binding. […] All reactions were performed in polystyrene 96-well plates in a final volume of 0.135 mL. […] The beads were then re-suspended in elution buffer (1×PBS, 0.05% Tween 20, 0.5 μM non-biotinylated affinity ligand) and incubated at room temperature with shaking for 30 minutes. The kinase concentration in the eluates was measured by qPCR.

In test [4] the target is JAK3 (Homo sapiens (Human), UniProt P52333). Description: KINOMEscan kinase binding assay (DiscoveRx). The procedure:
as §2

Test [5] addresses PLK4 kinase (Homo sapiens (Human), UniProt O00444). Description: KINOMEscan kinase binding assay (DiscoveRx). The following applies: read-out: binding affinity with PLK4 kinase (Kd). Here is the method:
as §2

Test [6] has as its target ROS1 (Homo sapiens (Human), UniProt P08922). Briefly: KINOMEscan kinase binding assay (DiscoveRx). The procedure:
as §2

Test [7] addresses TRKA (Homo sapiens (Human), UniProt P04629). Description: KINOMEscan kinase binding assay (DiscoveRx). Here is the method:
as §2

For test [8], the target named is TRKB (Homo sapiens (Human), UniProt Q16620). Briefly: KINOMEscan kinase binding assay (DiscoveRx). The procedure:
as §2

The subject of test [9] is Colorectal cell line KM12 (harboring endogenous TPM3-TRKA fusion gene). Briefly: KM12 cell proliferation assay (CellTiter-Glo). The test is classed as cell-based. The following applies: Homo sapiens, 72 hours incubation, read-out: KM 12 cell prolif. IC50. Background: Cellular ATP, detected with luciferase, serves as a proxy for viable cell number.
In test [10] the test system is Essential thrombocythemia cell line SET-2 cells (harboring endogenous JAK2 point mutation). Briefly: SET-2 cell proliferation assay (CellTiter-Glo). The following applies: Homo sapiens, 72 hours incubation, read-out: SET2 cell proli. IC50. It is filed as cell-based.
Test [11] relates to T cell lymphoma Karpas-299 cell line (harboring endogenous NPM-ALK fusion gene). Briefly: Karpas-299 cell proliferation assay (CellTiter-Glo). The test is classed as cell-based. The following applies: Homo sapiens, 72 hours incubation, read-out: Karpas 299 cell proli. IC50.
The target of test [12] is TPM3-TRKA (Homo sapiens (Human), UniProt P04629+P06753). Briefly: TRKA phosphorylation assay in KM12 cells (western blot). The test is classed as cell-based. The following applies: 5 hours treatment, read-out: inhibition of autophosphorylation of TPM3-TRKA IC50. Here is the method:
(§3) Colorectal cell lines KM 12 (harboring endogenous TPM3-TRKA fusion gene) cells were cultured in DMEM medium, supplemented with 10% fetal bovine serum and 100 U/mL of penicillin/streptomycin. One million cells were seeded in 6-well plate for 24 hours before compounds treatment. Cells were washed with 1×PBS and collected after 5 hours treatment and lysed in RIPA buffer (50 mM Tris, pH 7.4, 150 mM NaCl, 1% NP-40, 0.5% Deoxycholate, 0.1% SDS) supplemented with 10 mM EDTA, Halt protease and phosphatase inhibitors (Thermo Scientific). Protein lysates (20 μg) were resolved on 4-12% Bolt Bis-Tris precasted gels with MES running buffer (Life Technologies), transferred to nitrocellulose membranes using Trans-Blot Turbo Transfer System (Bio-Rad) and detected with antibodies targeting phosphorylated TRK A (Cell Signaling Technology, Y496, Y680, Y681, clone C50F3; 1:1000 dilution), total TRK A (Santa Cruz Biotechnology, sc-11; clone C-14, 1:2000 dilution), phosphorylated AKT (Cell signaling, S473, D9E, #9271; 1:5000 dilution), total AKT (Cell Signaling Technology, 40D4; 1:2000 dilution), phosphorylated ERK (Cell Signaling Technology, Thr 202/204, D13.14.4E, #4370; 1:2000 dilution), total ERK (Cell Signaling Technology; 1:1000 dilution) and Tubulin (Sigma, T4026, 1:5000 dilution). […]
Background: In western blotting, separated proteins are transferred to a membrane and probed.

In test [13] the test system is AKT. Briefly: Downstream signal target phosphorylation assay in KM12 cells (western blot). The test is classed as cell-based. The following applies: Homo sapiens, 5 hours treatment, read-out: inhibition of phosphorylation of AKT IC50. Here is the method:
as §3

The subject of test [14] is ERK. Described as above. The following applies: Homo sapiens, 5 hours treatment, read-out: inhibition of phosphorylation of ERK IC50. It is filed as cell-based. The procedure: as §3
Test [15] has as its system KM12 cells. Description: Caspase activity assay / PARP western blot. The following applies: 72 hours. The test is classed as cell-based. The procedure: KM12 cells were maintained in DMEM medium supplemented with 10% fetal bovine serum and antibiotics. 500,000 cells were seeded in 12-well plate and various concentration of compounds were introduced for 72 hours For staurosporine treatment, 500 nM of STS were added at time of 60 hours and incubation of 12 hours as a positive control. All the cells were collected and washed with 1×PBS twice and then lysed in a lysis buffer (20 mM HEPES, 150 mM NaCl, 10 mM KCl, 5 mM EDTA, 1% NP40) supplemented with Halt protease and phosphatase inhibitors (Thermo Scientific). For caspase assays, around 20 μL (20 μg) of cell lysate were incubated with 20 μL of caspase3 glo reagent (Promega), measuring enzyme activity by the release of luminescence after 20 min incubation at 37° C. For western blotting, cell lysates were boiled and analyzed by SDS-PAGE/immunoblotting using PARP, or actin antibodies.

Chain of ROS1 (P08922 28-2347): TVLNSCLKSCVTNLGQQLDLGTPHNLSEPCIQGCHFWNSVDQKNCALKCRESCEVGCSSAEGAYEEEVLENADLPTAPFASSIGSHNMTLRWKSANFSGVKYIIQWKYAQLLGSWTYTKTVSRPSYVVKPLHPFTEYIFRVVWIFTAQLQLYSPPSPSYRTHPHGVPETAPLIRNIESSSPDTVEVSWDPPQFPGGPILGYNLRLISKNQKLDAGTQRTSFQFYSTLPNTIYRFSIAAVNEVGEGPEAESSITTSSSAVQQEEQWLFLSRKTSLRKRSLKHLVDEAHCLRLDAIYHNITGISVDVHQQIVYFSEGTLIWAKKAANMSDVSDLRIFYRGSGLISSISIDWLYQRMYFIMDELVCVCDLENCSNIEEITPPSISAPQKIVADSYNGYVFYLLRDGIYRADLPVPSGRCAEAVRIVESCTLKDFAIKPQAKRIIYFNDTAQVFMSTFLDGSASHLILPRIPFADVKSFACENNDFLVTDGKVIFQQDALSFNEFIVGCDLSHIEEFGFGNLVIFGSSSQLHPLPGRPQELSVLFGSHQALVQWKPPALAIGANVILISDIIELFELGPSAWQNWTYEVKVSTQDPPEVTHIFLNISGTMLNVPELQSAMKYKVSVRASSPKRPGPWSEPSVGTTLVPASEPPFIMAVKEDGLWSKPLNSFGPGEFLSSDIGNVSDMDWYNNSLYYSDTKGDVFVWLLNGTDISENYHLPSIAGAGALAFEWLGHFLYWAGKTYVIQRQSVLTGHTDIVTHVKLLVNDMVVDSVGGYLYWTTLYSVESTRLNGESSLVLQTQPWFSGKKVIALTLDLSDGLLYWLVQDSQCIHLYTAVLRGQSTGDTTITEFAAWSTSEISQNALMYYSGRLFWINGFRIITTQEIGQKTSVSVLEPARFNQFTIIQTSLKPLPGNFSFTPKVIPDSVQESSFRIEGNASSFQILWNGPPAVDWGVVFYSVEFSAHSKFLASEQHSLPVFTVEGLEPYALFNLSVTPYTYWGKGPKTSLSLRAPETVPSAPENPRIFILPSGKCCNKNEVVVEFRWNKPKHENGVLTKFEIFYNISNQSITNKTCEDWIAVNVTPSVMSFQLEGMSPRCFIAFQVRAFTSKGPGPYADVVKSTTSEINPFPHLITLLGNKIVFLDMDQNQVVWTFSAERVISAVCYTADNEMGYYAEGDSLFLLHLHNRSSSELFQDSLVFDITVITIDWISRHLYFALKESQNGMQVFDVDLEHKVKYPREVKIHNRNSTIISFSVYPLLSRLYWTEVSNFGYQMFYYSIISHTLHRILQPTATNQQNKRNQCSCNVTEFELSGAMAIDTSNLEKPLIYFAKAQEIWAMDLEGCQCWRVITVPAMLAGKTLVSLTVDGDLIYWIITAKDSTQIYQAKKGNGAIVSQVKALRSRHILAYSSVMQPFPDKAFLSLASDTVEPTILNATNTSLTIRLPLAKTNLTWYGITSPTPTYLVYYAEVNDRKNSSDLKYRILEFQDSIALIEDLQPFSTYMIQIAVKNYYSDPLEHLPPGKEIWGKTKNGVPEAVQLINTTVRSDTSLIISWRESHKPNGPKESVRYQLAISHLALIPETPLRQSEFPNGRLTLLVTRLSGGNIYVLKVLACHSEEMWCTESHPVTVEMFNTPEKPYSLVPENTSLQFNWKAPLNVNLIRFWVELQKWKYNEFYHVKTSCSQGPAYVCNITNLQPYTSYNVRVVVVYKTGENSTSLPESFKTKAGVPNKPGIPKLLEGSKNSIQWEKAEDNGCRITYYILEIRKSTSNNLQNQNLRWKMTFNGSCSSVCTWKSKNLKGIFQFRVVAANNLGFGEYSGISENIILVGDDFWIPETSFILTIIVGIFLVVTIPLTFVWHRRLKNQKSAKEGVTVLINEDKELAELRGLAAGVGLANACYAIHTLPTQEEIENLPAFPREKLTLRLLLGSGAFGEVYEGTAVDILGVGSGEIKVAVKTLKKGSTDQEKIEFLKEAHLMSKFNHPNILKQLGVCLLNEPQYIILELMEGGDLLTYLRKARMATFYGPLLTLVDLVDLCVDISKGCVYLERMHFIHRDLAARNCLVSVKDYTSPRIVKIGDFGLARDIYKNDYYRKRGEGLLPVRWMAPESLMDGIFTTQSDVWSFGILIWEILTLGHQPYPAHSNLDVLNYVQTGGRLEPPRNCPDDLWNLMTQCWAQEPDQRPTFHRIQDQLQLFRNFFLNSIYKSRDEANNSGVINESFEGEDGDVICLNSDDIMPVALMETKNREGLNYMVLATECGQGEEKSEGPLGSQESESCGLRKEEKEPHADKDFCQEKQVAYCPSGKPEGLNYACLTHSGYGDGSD
Chain of JAK1 (P23458 whole entry): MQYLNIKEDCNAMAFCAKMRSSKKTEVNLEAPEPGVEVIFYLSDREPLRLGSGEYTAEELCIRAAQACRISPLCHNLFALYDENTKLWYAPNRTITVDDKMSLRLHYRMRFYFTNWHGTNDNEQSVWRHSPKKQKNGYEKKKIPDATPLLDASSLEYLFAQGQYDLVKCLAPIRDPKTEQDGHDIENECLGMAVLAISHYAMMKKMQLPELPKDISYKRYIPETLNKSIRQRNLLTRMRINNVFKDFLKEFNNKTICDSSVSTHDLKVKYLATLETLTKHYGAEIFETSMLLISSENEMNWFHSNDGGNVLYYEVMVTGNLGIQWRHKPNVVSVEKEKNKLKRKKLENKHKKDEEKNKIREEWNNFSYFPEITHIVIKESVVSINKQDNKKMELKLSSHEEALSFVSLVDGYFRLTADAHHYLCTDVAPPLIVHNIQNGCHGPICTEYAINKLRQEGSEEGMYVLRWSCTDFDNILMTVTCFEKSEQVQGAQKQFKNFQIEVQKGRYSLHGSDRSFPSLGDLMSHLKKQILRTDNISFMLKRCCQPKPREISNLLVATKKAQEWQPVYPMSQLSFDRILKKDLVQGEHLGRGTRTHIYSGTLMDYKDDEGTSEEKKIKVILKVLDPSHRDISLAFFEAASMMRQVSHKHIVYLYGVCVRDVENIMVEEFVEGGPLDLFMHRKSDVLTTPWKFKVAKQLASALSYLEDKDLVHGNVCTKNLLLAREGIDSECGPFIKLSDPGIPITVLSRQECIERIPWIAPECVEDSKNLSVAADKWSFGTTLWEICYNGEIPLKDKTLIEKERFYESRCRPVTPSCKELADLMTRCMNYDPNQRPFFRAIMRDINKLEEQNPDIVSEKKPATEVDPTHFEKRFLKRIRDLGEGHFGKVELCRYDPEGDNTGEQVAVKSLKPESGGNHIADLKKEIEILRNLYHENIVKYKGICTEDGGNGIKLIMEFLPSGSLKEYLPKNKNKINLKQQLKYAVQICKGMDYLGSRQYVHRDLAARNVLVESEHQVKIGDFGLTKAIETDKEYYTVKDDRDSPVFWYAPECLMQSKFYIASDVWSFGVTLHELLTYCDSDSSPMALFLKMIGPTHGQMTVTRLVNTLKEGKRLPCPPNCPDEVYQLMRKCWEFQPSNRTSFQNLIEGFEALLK
Chain of JAK3 (P52333 whole entry): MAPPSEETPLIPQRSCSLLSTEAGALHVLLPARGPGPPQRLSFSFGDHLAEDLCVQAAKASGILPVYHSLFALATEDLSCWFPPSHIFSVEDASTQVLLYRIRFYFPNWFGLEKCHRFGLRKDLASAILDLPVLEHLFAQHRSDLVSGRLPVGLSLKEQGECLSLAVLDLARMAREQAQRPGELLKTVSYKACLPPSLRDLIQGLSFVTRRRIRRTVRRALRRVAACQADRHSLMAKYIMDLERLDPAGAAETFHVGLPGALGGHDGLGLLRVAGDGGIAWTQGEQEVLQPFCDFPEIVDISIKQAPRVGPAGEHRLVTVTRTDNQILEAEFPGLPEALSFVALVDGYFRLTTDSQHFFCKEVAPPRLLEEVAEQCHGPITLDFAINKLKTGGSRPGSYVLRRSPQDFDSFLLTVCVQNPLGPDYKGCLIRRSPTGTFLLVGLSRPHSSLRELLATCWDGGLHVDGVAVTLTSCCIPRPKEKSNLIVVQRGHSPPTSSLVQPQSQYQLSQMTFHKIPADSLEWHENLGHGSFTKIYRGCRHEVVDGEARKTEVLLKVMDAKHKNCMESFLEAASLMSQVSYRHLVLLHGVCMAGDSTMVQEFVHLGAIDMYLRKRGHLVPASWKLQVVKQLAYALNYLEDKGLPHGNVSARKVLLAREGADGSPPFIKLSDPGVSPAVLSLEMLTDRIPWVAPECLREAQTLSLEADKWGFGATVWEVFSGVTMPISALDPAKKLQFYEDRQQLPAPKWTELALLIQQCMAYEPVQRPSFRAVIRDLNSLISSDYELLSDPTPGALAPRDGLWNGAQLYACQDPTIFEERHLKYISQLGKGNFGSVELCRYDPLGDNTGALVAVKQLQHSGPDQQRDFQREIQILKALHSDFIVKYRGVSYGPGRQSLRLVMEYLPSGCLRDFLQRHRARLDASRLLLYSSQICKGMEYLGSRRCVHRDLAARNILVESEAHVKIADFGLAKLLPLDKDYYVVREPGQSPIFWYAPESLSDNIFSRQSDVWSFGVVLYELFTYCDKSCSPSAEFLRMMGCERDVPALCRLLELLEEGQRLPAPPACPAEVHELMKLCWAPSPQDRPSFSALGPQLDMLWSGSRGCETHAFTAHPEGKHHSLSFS

In the case of `CN1Cc2cc(F)ccc2OCCNC(=O)c2cnn3ccc1nc23` [Example 20, 11-fluoro-14-methyl-6,7,13,14-tetrahydro-1,15-ethenopyrazolo[4,3-f][1,4,8,10]benzoxatriazacyclo-tridecin-4(5H)-one], the Kd in test [1] was 80 nM; in test [2], 4.8 nM; in test [3], > 1000 nM; in [4], 120 nM; in [5], 2.9 nM; in test [6], 21 nM. Besides, the Kd in test [7] turned out to be 0.031 nM; in test [8], 0.18 nM. Further, the IC50 in test [9] stood at 0.86 nM; in [10] it was 2000 nM; in [11], 1000 nM; in test [12] it was 1.07 nM; in test [13], 2.8 nM; in test [14], 2 nM. For the same compound, the “apoptosis of KM 12 cells” value in test [15] is “induced apoptosis”.
